Consider 37 compounds from patent US10550089B2, “Inhibitors of protease-activated receptor-2” (Heptares Therapeutics Limited, priority 2016, dated 2020).

SMILES strings stand for the structures.

Test [1] has as its target T1, PAR2 (Homo sapiens (Human), UniProt P55085). Nature of the test: Trypsin activated FLPR Ca2+ mobilization assay for PAR2 antagonist activity. The test is classed as cell-based. As for the experimental part: Trypin Activated FLPR Assay:
Protocol for Testing Compounds for PAR2 Antagonist Activity Using a Ca2+ Mobilization Assay
Calcium mobilization was measured using 1321N1 cells stably expressing human PAR2. Cells were seeded in 384-well plates at 4,000 cells per well in 20 μl DMEM with Glutamax supplemented with 10% FBS and incubated for 18-24 h at 37° C., 5% CO2 and 95% humidity. […] The addition was done using a FLIPR^TETRA (384-well head, Molecular Devices) and the response was read simultaneously to detect any agonist activity.
(Calcium assays in cells follow changes in intracellular calcium, usually with a dye or a luminescent sensor.)

Test [2] deals with T1, PAR2. Nature of the test: IP-One HTRF assay for PAR2 antagonist activity (IP1 production). The test is classed as cell-based. As for the experimental part: Protocol for Testing Compounds for PAR2 Antagonist Activity Using an IP-One HTRF Assay
Inositol monophosphate (IP1) production were measured in 1321N1 cells stably expressing human PAR2 using an IP-One HTRF assay kit (Cisbio). […] After 60 min at 37° C. cells were lysed and IP1 concentrations were detected according to the manufacturers protocol (Cisbio). Data were normalized to IP1 concentrations using a IP1 standard curve according to the manufacturers protocol (Cisbio).
On the technique in general: TR-FRET usually uses a lanthanide donor and a delayed reading to cut background.

Where [3] appears, read: 1321N1 cells stably expressing human PAR2, agonist Trypsin, Vorapaxar present to block PAR1, read-out: hPAR2 FLPR (Trypsin) IC50.
[4] abbreviates: 1321N1 cells stably expressing human PAR2, agonist SLIGRL-NH2, read-out: hPAR2 IPpone IC50.
The mark [5] stands for this setting: hPAR2 FLPR (Trypsin) IC50 (μM), 1321N1 cells stably expressing human PAR2, agonist Trypsin, Vorapaxar present to block PAR1.
[6] abbreviates: hPAR2 IPpone IC50 (μM), 1321N1 cells stably expressing human PAR2, agonist SLIGRL-NH2.

T1 sequence (P55085 26-397): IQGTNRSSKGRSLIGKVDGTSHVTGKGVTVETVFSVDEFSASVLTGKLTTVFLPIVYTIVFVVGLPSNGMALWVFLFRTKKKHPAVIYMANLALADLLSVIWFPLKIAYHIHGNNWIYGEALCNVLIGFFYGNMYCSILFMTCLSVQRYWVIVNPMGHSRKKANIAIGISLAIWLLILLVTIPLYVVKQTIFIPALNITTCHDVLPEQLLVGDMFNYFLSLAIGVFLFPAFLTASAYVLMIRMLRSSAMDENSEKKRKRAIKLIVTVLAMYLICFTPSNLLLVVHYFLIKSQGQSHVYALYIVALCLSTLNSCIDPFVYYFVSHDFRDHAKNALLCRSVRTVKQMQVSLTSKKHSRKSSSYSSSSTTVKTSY

On to `Cn1ccc2c(F)ccc(C(O)c3ncc[nH]3)c21` (stereo not shown) [Example 54, (4-Fluoro-1-methyl-1H-indol-7-yl)(1H-imidazol-2-yl)methanol], for which, at PAR2 [1] (setting [3]), the IC50 came out at 6.15 µM. Consider `C/C=C\c1cc(F)ccc1C(O)c1ncc[nH]1` (stereo not shown) [Example 9, (Z)-(4-Fluoro-2-(prop-1-enyl)phenyl)(1H-imidazol-2-yl)methanol], for which the values for the IC50 at PAR2 [1] (setting [3]) and at PAR2 [2] (setting [4]) were 6.26 µM and 9.66 µM, respectively. On to `CC(C)c1ccc2c(F)ccc(C(O)c3ncc[nH]3)n12` (stereo not shown) [Example 38, (8-Fluoro-3-isopropylindolizin-5-yl)(1H-imidazol-2-yl)methanol], for which the concentration for half-maximal inhibition (IC50) at PAR2 [1] (setting [5]) was found to be 13.9 µM; on PAR2 [2] (setting [6]) it was 1.91 µM. Take `CCCc1c(C(O)c2ncc[nH]2)ccc(F)c1F` (single isomer, unassigned) [Example 12, (3,4-Difluoro-2-propylphenyl)(1H-imidazol-2-yl)methanol]: the figures for the concentration for half-maximal inhibition (IC50) on PAR2 [1] (setting [3]) and on PAR2 [2] (setting [4]) were 4.9 µM and 4 µM, respectively. On the same counts, the results for `OC(c1ncc[nH]1)c1ccc(F)cc1N1CCC(F)(F)C1` (stereo not shown) [Example 28, (2-(3,3-Difluoropyrrolidin-1-yl)-4-fluorophenyl)(1H-imidazol-2-yl)methanol] are 30.3 µM and 4.91 µM. `OC(c1ncc[nH]1)c1cccc(Cl)c1-n1cccn1` (stereo not shown) [Example 21, (3-Chloro-2-(1H-pyrazol-1-yl)phenyl) (1H-imidazol-2-yl)methanol]: the IC50 on PAR2 [1] (setting [3]) turned out to be 40.3 µM; on PAR2 [2] (setting [4]), 6.4 µM. Take `OC(c1ncc[nH]1)c1ccc(F)cc1N1CCCC1` (stereo not shown) [Example 14, (4-Fluoro-2-(pyrrolidin-1-yl)phenyl)(1H-imidazol-2-yl)methanol]: the IC50 against PAR2 [1] (hPAR2 FLPR (Trypsin) IC50 (μM)) was found to be 16.9 µM; against PAR2 [2] (hPAR2 IPpone IC50 (μM)) it was 1.52 µM. Consider `OC(c1ncc[nH]1)c1ccc(F)cc1N1CC=CC1` (single isomer, unassigned) [Example 19, (2-(2,5-dihydro-1H-pyrrol-1-yl)-4-fluorophenyl) (1H-imidazol-2-yl)methanol], for which the IC50 on PAR2 [1] (setting [3]) is over 100 µM; on PAR2 [2] (setting [4]), 93 µM.

Consider `OC(c1ncc[nH]1)c1ccccc1C1=CCCC1` (stereo not shown) [Example 4, (2-Cyclopentenylphenyl)(1H-imidazol-2-yl)methanol], for which the 50% inhibitory concentration (IC50) at PAR2 [1] (setting [3]) stood at 16.6 µM; on PAR2 [2] (setting [4]) it was 6.27 µM. Consider `OC(c1ncc[nH]1)c1ccc(F)cc1N1CC[C@@H](F)C1` (stereo partly drawn) [Example 27, (4-Fluoro-2-((R)-3-fluoropyrrolidin-1-yl)phenyl)(1H-imidazol-2-yl)methanol], for which the 50% inhibitory concentration (IC50) at PAR2 [1] (setting [3]) is over 41.6 µM; on PAR2 [2] (setting [4]), 6.96 µM.

As to `OC(c1ncc[nH]1)c1ccc(F)cc1-c1cocn1` (stereo not shown) [Example 32, (4-Fluoro-2-(oxazol-4-yl)phenyl)(1H-imidazol-2-yl)methanol], the 50% inhibitory concentration (IC50) was found to be 30.6 µM at PAR2 [1] (setting [3]) and 14.3 µM at PAR2 [2] (setting [4]). The corresponding values for `Cc1ccc2c(F)ccc(C(O)c3ncc[nH]3)n12` (stereo not shown) [Example 37, (8-Fluoro-3-methylindolizin-5-yl)(1H-imidazol-2-yl)methanol] are 3.27 µM and 0.97 µM. The corresponding values for `CC1(F)CN(c2cc(F)ccc2C(O)c2ncc[nH]2)C1` (stereo not shown) [Example 24, (4-Fluoro-2-(3-fluoro-3-methylazetidin-1-yl)phenyl)(1H-imidazol-2-yl)methanol] are 16.3 µM and 6.73 µM.

With `CC1CN(c2cc(F)ccc2C(O)c2ncc[nH]2)C1` (stereo not shown) [Example 25, (4-Fluoro-2-(3-methylazetidin-1-yl)phenyl)(1H-imidazol-2-yl)methanol], the IC50 at PAR2 [1] (setting [3]) is 22 µM; on PAR2 [2] (setting [4]), 6.88 µM. For `OC(c1ncc[nH]1)c1cccc2cc3n(c12)CCC3` (stereo not shown) [Example 58, (2,3-Dihydro-1H-pyrrolo[1,2-a]indol-5-yl)(1H-imidazol-2-yl)methanol], the IC50 on PAR2 [1] (setting [3]) was over 41.6 µM. As to `CCCc1c(Cl)cccc1C(O)c1ncc[nH]1` (stereo not shown) [Example 13, (3-Chloro-2-propylphenyl)(1H-imidazol-2-yl)methanol], the IC50 on PAR2 [1] (setting [5]) came to 12.4 µM; on PAR2 [2] (setting [6]) it was 5.45 µM. As for `Cn1ccc2c(F)ccc(C(O)c3ncc[nH]3)c21` (single isomer, unassigned) [Example 56, (4-Fluoro-1-methyl-1H-indol-7-yl)(1H-imidazol-2-yl)methanol], the IC50 was over 41.6 µM at PAR2 [1] (setting [3]) and over 100 µM at PAR2 [2] (setting [4]).

Take `OC(c1ncc[nH]1)c1ccc(F)cc1C1=CCCC1` (stereo not shown) [Example 5, (2-Cyclopentenyl-4-fluorophenyl)(1H-imidazol-2-yl)methanol]: the IC50 on PAR2 [1] (setting [3]) was found to be 13.7 µM; at PAR2 [2] (setting [4]), 5.18 µM. On the same counts, the results for `OC(c1ncc[nH]1)c1ccc(F)c2occ(C3CC3)c12` (stereo not shown) [Example 43, (3-Cyclopropyl-7-fluorobenzofuran-4-yl)(1H-imidazol-2-yl)methanol] are 4.58 µM and 0.86 µM. Consider `OC(c1ncc[nH]1)c1ccc(F)cc1N1CC[C@H](F)C1` (stereo partly drawn) [Example 26, (4-Fluoro-2-((S)-3-fluoropyrrolidin-1-yl)phenyl)(1H-imidazol-2-yl)methanol], for which the IC50 on PAR2 [2] (setting [4]) turned out to be 3.87 µM. `OC(c1ncc[nH]1)c1ccc(F)cc1N1CC=CC1` (single isomer, unassigned) [Example 18, (2-(2,5-dihydro-1H-pyrrol-1-yl)-4-fluorophenyl)(1H-imidazol-2-yl)methanol]: the IC50 turned out to be 4.28 µM on PAR2 [1] (setting [3]) and 0.9 µM at PAR2 [2] (setting [4]). Consider `OC(c1ncc[nH]1)c1ccc(F)cc1N1CC=CC1` (stereo not shown) [Example 17, (2-(2,5-dihydro-1H-pyrrol-1-yl)-4-fluorophenyl)(1H-imidazol-2-yl)methanol], for which the figures for the IC50 on PAR2 [1] (setting [3]) and at PAR2 [2] (setting [4]) were 8.75 µM and 1.05 µM, respectively.

In the case of `CCCc1c(C(O)c2ncc[nH]2)ccc(F)c1F` (stereo not shown) [Example 10, (3,4-Difluoro-2-propylphenyl)(1H-imidazol-2-yl)methanol], the IC50 at PAR2 [1] (setting [3]) came to 5.9 µM; at PAR2 [2] (setting [4]), 1.66 µM.

Regarding `CCc1coc2c(F)ccc(C(O)c3ncn[nH]3)c12` (stereo not shown) [Example 63, (3-Ethyl-7-fluorobenzofuran-4-yl)(1H-1,2,4-triazol-5-yl)methanol], on PAR2 [1] (setting [3]), the IC50 stood at 15.6 µM.

As to `CCn1ccc2c(F)ccc(C(O)c3ncc[nH]3)c21` (stereo not shown) [Example 57, (1-Ethyl-4-fluoro-1H-indol-7-yl)(1H-imidazol-2-yl)methanol], the IC50 on PAR2 [1] (setting [3]) is 9.03 µM; on PAR2 [2] (setting [4]), 1.65 µM.

On to `OC(c1ncc[nH]1)c1ccc(F)cc1C12CCCC1C2` (stereo not shown) [Example 31, (2-(Bicyclo[3.1.0]hexan-1-yl)-4-fluorophenyl)(1H-imidazol-2-yl)methanol], for which the IC50 was over 41 µM at PAR2 [1] (setting [3]) and 4.32 µM on PAR2 [2] (setting [4]). Consider `OC(c1ncc[nH]1)c1ccc(F)c2ccc(Cl)n12` (stereo not shown) [Example 61, (3-Chloro-8-fluoro-indolizin-5-yl)-(1H-imidazol-2-yl)methanol], for which the figures for the half-maximal inhibitory concentration (IC50) on PAR2 [1] (setting [3]) and on PAR2 [2] (setting [4]) were 3.1 µM and 1.9 µM, respectively. With `C/C=C/c1cc(F)ccc1C(O)c1ncc[nH]1` (stereo not shown) [Example 8, (E)-(4-Fluoro-2-(prop-1-enyl)phenyl)(1H-imidazol-2-yl)methanol], the IC50 worked out at 5.1 µM at PAR2 [1] (setting [3]) and 5.64 µM on PAR2 [2] (setting [4]).

With `CCc1coc2c(F)ccc([C@@H](O)c3ncc[nH]3)c12` (single isomer, unassigned) [Example 41], the values for the IC50 on PAR2 [1] (setting [5]) and on PAR2 [2] (setting [6]) were 2.19 µM and 26 µM, respectively. For `OC(c1ncc[nH]1)c1ccc(F)cc1N1CCCC1` (single isomer, unassigned) [Example 15, (4-Fluoro-2-(pyrrolidin-1-yl)phenyl)(1H-imidazol-2-yl)methanol], the IC50 was over 41 µM on PAR2 [1] (hPAR2 FLPR (Trypsin) IC50 (μM)) and over 100 µM against PAR2 [2] (hPAR2 IPpone IC50 (μM)). `CCCc1cc(F)ccc1C(O)c1ncc[nH]1` (stereo not shown) [Example 1, (4-Fluoro-2-propylphenyl)(1H-imidazol-2-yl)methanol] displayed an IC50 against PAR2 [2] (hPAR2 IPpone IC50 (μM)) of 2.93 µM. As for `Cc1coc2c(F)ccc(C(O)c3ncc[nH]3)c12` (stereo not shown) [Example 52, (7-Fluoro-3-methylbenzofuran-4-yl)(1H-imidazol-2-yl)methanol], the half-inhibitory concentration (IC50) was 3.27 µM at PAR2 [1] (setting [3]) and 0.97 µM on PAR2 [2] (setting [4]). On the same counts, the results for `OC(c1ncc[nH]1)c1ccc(F)cc1-n1cccn1` (stereo not shown) [Example 23, (4-Fluoro-2-(1H-pyrazol-1-yl)phenyl)(1H-imidazol-2-yl)methanol] are 25.4 µM and 7.21 µM. On the same counts, the results for `OC(c1ncc[nH]1)c1ccc(F)cc1C1CCCC1` (stereo not shown) [Example 6, (2-Cyclopentyl-4-fluorophenyl)(1H-imidazol-2-yl)methanol] are 9.57 µM and 5 µM.

Take `CCc1coc2c(F)ccc(C(O)c3ncc[nH]3)c12` (stereo not shown) [Example 40, (3-Ethyl-7-fluorobenzofuran-4-yl)(1H-imidazol-2-yl)methanol]: the IC50 came to 4.9 µM at PAR2 [1] (setting [5]) and 0.75 µM at PAR2 [2] (setting [6]). Regarding `Cn1ncc2c(F)ccc(C(O)c3ncc[nH]3)c21` (stereo not shown) [Example 62, (4-Fluoro-1-methyl-1H-indazol-7-yl)(1H-imidazol-2-yl)methanol], the IC50 at PAR2 [2] (setting [4]) amounted to 3.38 µM. Consider `OC(c1ncc[nH]1)c1ccc(F)c2ccc(C3CC3)n12` (stereo not shown) [Example 39, (3-Cyclopropyl-8-fluoroindolizin-5-yl)(1H-imidazol-2-yl)methanol], for which the IC50 at PAR2 [2] (setting [6]) is 13.2 µM.

A word on the IC50: it is the concentration that inhibits the measured activity by half.
